# Experimental data published in patent US20120196918A1, “PREVENTING ISLET INFLAMMATION AND DYSFUNCTION AND MAINTAINING PROPER GLUCOSE LEVELS BY CONTROLLING eIF5A AND ITS HYPUSINATION” (priority 2009, published 2012).
# Key:
# iNOS [1] = experiment: Cytokine-induced iNOS protein in islets from siRNA-injected mice (immunoblot); assay type: cell-based, mouse; details: cytokines 4 h
# Protocol: Because nitric oxide is known to be a primary effector of islet dysfunction in response to cytokine-induced stress, the transcription of the gene encoding iNOS (Nos2) was also examined.
# Cytokine and inhibitor incubation studies: For cytokine incubation assays, a 1000× cocktail of cytokines containing 5 μg/ml IL1β, 10 μg/ml TNFα, and 100 μg/ml IFNγ (all prepared in 0.1% BSA in Tris-buffered saline) was applied at 1× final concentration to groups of 50 islets or 1×10^6 INS-1 (832/13) cells for a total of 4 h at 37° C. […]
# (§1) Immunoblot and nitrite and iNOS assays: Whole cell extracts were resolved by electrophoresis on a 4-20% SDS-polyacrylamide gel, followed by immunoblot using anti-eIF5A1, anti-eIF5A2, anti-iNOS, anti-GFP, or anti-actin primary antibodies and fluorophore-labeled secondary antibodies. Immunoblots were visualized using the Li-Cor® Odyssey® system (Li-Cor Biosciences) and quantitated by scanning fluorometry using Odyssey Imaging v. […] Nitrite was quantitated by measuring nitric oxide-derived nitrite from INS-1 cell culture medium using the Griess reagent (Promega) according to the manufacturer's recommendations. iNOS activity was measured using a commercially available kit (Cayman).
# C57BL/6J mouse islets = experiment: GSIS and GSCa of islets isolated from siRNA-injected mice; assay type: cell-based
# Protocol: To clarify this, islets were isolated from siRNA-injected mice and their function assessed in vitro. […] In order to further characterize this improvement in islet glucose responsiveness, glucose-stimulated Ca2+ mobilization (GSCa) studies were also performed. GSCa is a measure of islet glucose sensitivity that captures the dynamics of the islet glucose response, which is similar to GSIS (31). The GSCa, as measured by the change in fura-2 AM fluorescence ratio after glucose stimulation, was increased in si-eIF5A-treated islets compared to controls, reflecting the functional improvement seen in GSIS (FIG. 3D). This improved GSCa relative to controls persisted 48 and 72 hours post-isolation (data not shown).
# A short cytokine exposure (4 h) was utilized to assess early impairment in islet function independent of islet cell death. […] As shown in the inset to FIG. 3E, eIF5A levels remained persistently lower in the si-eIF5A group even after cytokine exposure.
# (§2) Cytokine and inhibitor incubation studies: For cytokine incubation assays, a 1000× cocktail of cytokines containing 5 μg/ml IL1β, 10 μg/ml TNFα, and 100 μg/ml IFNγ (all prepared in 0.1% BSA in Tris-buffered saline) was applied at 1× final concentration to groups of 50 islets or 1×10^6 INS-1 (832/13) cells for a total of 4 h at 37° C. For GC7 incubation studies, GC7 was prepared at a stock concentration of 125 mM in 10 mM acetic acid and applied to cultures of 50 islets or 1×10^6 INS-1 cells to obtain the final concentrations indicted in the figures. Where needed, GC7 was protected from amine oxidases in serum by addition of 1 mM aminoguanidine (Sigma). Cells were incubated with GC7 overnight (˜16 h) at 37° C. prior to analysis. Cells were exposed to Leptomycin B (Cayman Chemicals) for 3 hours; leptomycin B was prepared at a 1000× stock concentration of 20 μg/ml in ethanol.
# (§3) GSCa imaging assays: Intracellular Ca^2+ ((Ca2+)i) was measured using the ratiometric Ca^2+ indicator fura-2 AM using a modification of previously published methods (79). The glucose-stimulated (Ca2+)i response (GSCa) was defined as the difference between ratio measurements (340/380 nm fluorescence) in 11 mM vs. 3 mM glucose. Data were analyzed with IP Lab's software version 4.0 (Scanalytics).
# GSIS and IPGTT studies: For GSIS studies using isolated islets, approximately 50 islets or 1×10^6 INS-1 cells per condition were washed and incubated in Krebs-Ringer HEPES-buffered (KRB) solution for one hour at 37° C., and then placed in KRB solution containing 3 mM or 11 mM glucose for one hour. […] Blood glucose was measured from samples taken from the tail vein before intraperitoneal injection of 1 g glucose per kg mouse weight, and at 10, 20, 30, 60, 90, 120, and 180 minutes after glucose administration using an A1phaTrak® glucometer (Abbott).
# Nos2 mRNA = experiment: Nos2 transcript levels in INS-1 cells (quantitative RT-PCR); assay type: cell-based, rat; details: 125 μM GC7, cytokines
# Source text: eIF5A1 and eIF5A2 are the only proteins known to contain the unique amino acid hypusine at position 50. Hypusine is formed as a posttranslational modification of residue Lys50 in a reaction requiring spermidine and catalyzed by the sequential actions of the enzymes deoxyhypusine synthase (DHS) and deoxyhypusine hydroxylase (DOHH) (Chen, K Y, and Liu, A Y. Biochemistry and function of hypusine formation on eukaryotic initiation factor 5A. Biol Signals. 1997; 6(3):105-109). […] To further investigate the mechanism of eIF5A-regulated translation of Nos2, studies were performed following overnight incubation of cells with mimosine (an inhibitor of DOHH) and GC7 (an inhibitor of DHS). […] Similar data using GC7 were obtained in primary mouse islets (data not shown) and in human islets (FIGS. 5F and 5G). […]
# Quantitative RT-PCR: Five micrograms of total RNA from islets or INS-1 cells were reverse-transcribed as detailed previously (77). cDNA was subjected to quantitative PCR using SYBR Green-based technology and published primers for mouse Ins1/2 pre-mRNA (78) and QuantiTech® primers (Qiagen) for all other mouse genes. […] All samples were corrected for total input RNA as quantitated by an Experion® (Bio-Rad) bioanalyzer. […]
# INS-1 cells = experiment: GSCa and GSIS of INS-1 cells exposed to cytokines; assay type: cell-based, rat; details: preincubation with 125 μM GC7, cytokines 4 h
# Protocol: GSCa and GSIS studies were carried out to assess INS-1 cell function in the presence of cytokines and GC7. […] This asynchronous pattern may be related to the dispersed nature of insulinoma cells compared to f3 cells in an intact islet.
# as §2, with “Cells were exposed to Leptomycin B (Cayman Chemicals) for 3 hours; leptomycin B was prepared at a 1000× stock concentration of 20 μg/ml in ethanol.” left out
# as §3, with “(Scanalytics). […]” for “(Scanalytics).”
# iNOS [2] = experiment: iNOS activity assay (commercial kit); assay type: biochemical; details: GC7 125 μM
# Protocol: (§4) Because GC7 is known to be inactivated by the action amine oxidases, which are abundant in serum, typical studies with GC7 in the literature have used aminoguanidine to inhibit amine oxidases (16). […] To rule out possible adverse effects of GC7 on cell viability, quantitative 2 color fluorescence analysis of live (calcein-AM-positive) and dead (ethidium homodimer-1-positive) cells were performed using fluorescence cytometry.
# Immunoblot and nitrite and iNOS assays: Whole cell extracts were resolved by electrophoresis on a 4-20% SDS-polyacrylamide gel, followed by immunoblot using anti-eIF5A1, anti-eIF5A2, anti-iNOS, anti-GFP, or anti-actin primary antibodies and fluorophore-labeled secondary antibodies. Immunoblots were visualized using the Li-Cor® Odyssey® system (Li-Cor Biosciences) and quantitated by scanning fluorometry using Odyssey Imaging v. 3.0 software (Li-Cor Biosciences). Nitrite was quantitated by measuring nitric oxide-derived nitrite from INS-1 cell culture medium using the Griess reagent (Promega) according to the manufacturer's recommendations. iNOS activity was measured using a commercially available kit (Cayman).
# iNOS [3] = experiment: Cytokine-induced iNOS protein in INS-1 cells (immunoblot); assay type: cell-based, rat
# Source text: eIF5A1 and eIF5A2 are the only proteins known to contain the unique amino acid hypusine at position 50. Hypusine is formed as a posttranslational modification of residue Lys50 in a reaction requiring spermidine and catalyzed by the sequential actions of the enzymes deoxyhypusine synthase (DHS) and deoxyhypusine hydroxylase (DOHH) (Chen, K Y, and Liu, A Y. Biochemistry and function of hypusine formation on eukaryotic initiation factor 5A. Biol Signals. 1997; 6(3):105-109). […] To further investigate the mechanism of eIF5A-regulated translation of Nos2, studies were performed following overnight incubation of cells with mimosine (an inhibitor of DOHH) and GC7 (an inhibitor of DHS). […] Similar data using GC7 were obtained in primary mouse islets (data not shown) and in human islets (FIGS. 5F and 5G).
# as §4, §2, §1
# [4] = IL-1β, TNFα, IFNγ for 4 h, compared to controls
Compound,induction of iNOS protein in islets (iNOS [1]),GSCa of isolated islets after cytokines (C57BL/6J mouse islets; [4]),GSIS of isolated islets after cytokines (C57BL/6J mouse islets; [4]),"glucose-stimulated insulin secretion (GSIS) of isolated islets (C57BL/6J mouse islets; islets from siRNA-injected mice, no cytokines)","glucose-stimulated Ca2+ mobilization (GSCa) of isolated islets (C57BL/6J mouse islets; islets from siRNA-injected mice, no cytokines, compared to controls)",Nos2 transcript levels (Nos2 mRNA),GSCa and GSIS after cytokines (INS-1 cells),inhibition of iNOS activity (iNOS [2]),concentration at which inhibition of iNOS was observed (iNOS [3]; co-incubation with 1 mM aminoguanidine),"iNOS protein after cytokines (iNOS [3]; increasing inhibitor concentrations overnight, cytokines 4 h)",concentration required to substantially block iNOS (iNOS [3]; without aminoguanidine)
"5′-AACGGAAUGACUUCCAGCUGA-3′ (siSTABLE modification, further chemistry not given here) [si-eIF5A]",significantly attenuated,significant preservation,significant preservation,significant improvement in islet response to glucose stimulation,increased,,,,,,
NCCCCCCCN=C(N)N [GC7],,,,,,remained disproportionately elevated,reverses the suppressive effect of cytokines on GSCa and GSIS almost completely,does not appear to inhibit iNOS activity,~3 µM,dose-dependent attenuation,> 30 µM
